Test [1] has as its target T1, FcRn (Homo sapiens, UniProt P55899). As to the kind of experiment: Competition for albumin or IgG binding to FcRn. Also noted: Soluble human FcRn was expressed and purified by Biogen-Idec as previously described (29). The text has this: Peptide phage libraries, obtained from Dyax Corp, were screened against biotinylated soluble human FcRn bound to streptavidin beads, using 3 rounds of sequential pH 6.0 binding and pH 7.5 elution/amplification protocols. […] Peptide SYN514 was utilized during a 2nd peptide phage screen to occupy this site on FcRn prior to the addition of the phage libraries, and to identify albumin-competitive sequences. This strategy uncovered the albumin-competitive peptide, SYN571, and through structure-activity relationships, the shorter sequence SYN1753 (Ac-[…]-CONH2 (SEQ ID NO: 1) (disulfide) which bound to shFcRn with equivalent affinity as determined by SPR.

Another test deals with shFcRn binding to HSA (Homo sapiens, UniProt P55899). As to the kind of experiment: SPR screening of FcRn binding peptides for inhibition of shFcRn binding to immobilized HSA. The note with it: 14 uM peptide, 5 uM shFcRn, pH 6. Here is the method: Unreacted sites were then capped by injecting a solution of ethanolamine over the chip surface. A reference flow cell was activated with EDC/NHS and then blocked with ethanolamine.
Chain of shFcRn binding to HSA (P55899 24-297 limits assumed): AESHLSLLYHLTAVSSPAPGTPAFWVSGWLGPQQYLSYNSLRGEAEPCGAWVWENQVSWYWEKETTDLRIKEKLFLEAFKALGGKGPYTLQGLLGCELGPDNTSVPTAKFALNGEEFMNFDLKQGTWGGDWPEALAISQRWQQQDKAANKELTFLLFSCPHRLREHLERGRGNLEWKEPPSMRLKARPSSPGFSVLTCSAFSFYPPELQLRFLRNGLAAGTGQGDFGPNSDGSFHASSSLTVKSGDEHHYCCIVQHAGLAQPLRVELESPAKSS
Chain of shFcRn binding to HSA (P61769 21-119 partner): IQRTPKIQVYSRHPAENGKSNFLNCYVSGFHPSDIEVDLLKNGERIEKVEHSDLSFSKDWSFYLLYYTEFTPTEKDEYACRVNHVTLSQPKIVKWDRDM
Samples were injected over the chip for 3 minutes at 20 uL/min followed by a 2.5 minute dissociation phase.

Test [2] deals with T1, FcRn. The note with it: Mezo, PNAS, 2007; cited from earlier work.

Each structure is given as a SMILES string.

T1 sequence (P55899 24-297 limits assumed): as the sequence (P55899 24-297 limits assumed) above
T1 sequence (P61769 21-119 partner): as the sequence (P61769 21-119 partner) above

Take `CC(=O)N[C@@H](CCCNC(=N)N)C(=O)N[C@@H](Cc1ccccc1)C(=O)N[C@@H]1C(=O)N[C@@H]([C@@H](C)O)C(=O)NCC(=O)N[C@@H](Cc2c[nH]cn2)C(=O)N[C@@H](Cc2ccccc2)C(=O)NCC(=O)N(C)CC(=O)N(C)[C@@H](CC(C)C)C(=O)N[C@@H](Cc2ccc(O)cc2)C(=O)N2CCC[C@H]2C(=O)N[C@H](C(N)=O)CSSC1(C)C` [SYN1327, Ac-RF-Pen-TGHFG-Sar-NMeLeu-YPC-CONH2, reference compound]: the “Competition for albumin or IgG binding to FcRn” value at FcRn [1] (Table 3) is given as “IgG”. The “competition with IgG or albumin for the FcRn binding site” value at FcRn [1] (competition experiments / SPR) is on record as “competes for binding of IgG”. Further, the “block of shFcRn binding to immobilized HSA” value on shFcRn binding to HSA is on record as “not able to compete for HSA binding”. Further, on FcRn [2], the “block of IgG binding to hFcRn” value was “block the binding of IgG to hFcRn”.

The record behind these values is US10588935B2, “FC receptor (FcRn) binding peptides and uses thereof” (THE BRIGHAM AND WOMEN'S HOSPITAL, INC., priority 2013, dated 2020).
